From ChEMBL document CHEMBL1149374, “Synthesis and biological evaluation of gem-diamine 1-N-iminosugars related to L-iduronic acid as inhibitors of heparan sulfate 2-O-sulfotransferase” (Bioorg Med Chem Lett, 2006)

Target: T1, Heparan sulfate 2-O-sulfotransferase 1 (Cricetulus longicaudatus) (UniProt O08889)
T1 sequence (whole entry): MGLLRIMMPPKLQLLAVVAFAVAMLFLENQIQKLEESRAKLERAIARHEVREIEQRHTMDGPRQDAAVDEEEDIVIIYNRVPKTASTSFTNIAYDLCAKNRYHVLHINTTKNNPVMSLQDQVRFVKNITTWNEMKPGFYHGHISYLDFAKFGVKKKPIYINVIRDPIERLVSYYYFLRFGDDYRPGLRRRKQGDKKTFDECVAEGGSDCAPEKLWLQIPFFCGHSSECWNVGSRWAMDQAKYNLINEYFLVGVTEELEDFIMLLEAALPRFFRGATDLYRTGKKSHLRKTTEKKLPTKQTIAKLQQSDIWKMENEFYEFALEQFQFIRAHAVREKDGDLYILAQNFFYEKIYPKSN
Test: Inhibition of sulfate transfer by HS 2-O-ST from CHO cells
Type: functional, cell-based
Details: concentration not given here

Row | inhibition [%] | SMILES
1 | 76 | CC(=O)N[C@H]1NC[C@@H](C(=O)O)[C@H](N=C(N)N)[C@@H]1O
2 | 84 | CCC(CC)C(=O)N1C[C@@H](C(=O)O)[C@H](N=C(N)N)[C@H](O)[C@H]1NC(C)=O
